Where “and” joins values, the source holds several entries; their conditions need not be identical. Identical values can stand only once.
Tests used:
[1] = test system: NF-κB activity in HEK293 NF-κB reporter cells; assay: NF-kB activity assay (GFP reporter, ionomycin/PMA); format: cell-based; details: for Mean NFκB response: n=3
In short: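 Reporter readout: GFP-expressing cells normalized to confluence, imaged every 90 min across 24 h after ionomycin (100 ng/mL)/PMA (10 ng/mL) stimulation of HEK293 cells pre-treated 4 h with compound (0.1% DMSO); triplicate independent experiments.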

BRPF1 = target: T1, BRPF1 (Homo sapiens, UniProt P55201); assay: Liability panel screening by DSF: BRPF1; format: binding; details: DSF, 20 µM, n=2; read-out: Mean ΔTM BRPF1
T1 construct: This panel comprised ten highly ligandable kinases and bromodomains; made in house
T1 sequence (P55201 628-732 limits assumed): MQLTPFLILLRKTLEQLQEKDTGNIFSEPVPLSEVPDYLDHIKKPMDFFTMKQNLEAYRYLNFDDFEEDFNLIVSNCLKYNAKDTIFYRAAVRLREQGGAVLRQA
In short: (§1)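 ∆Tm in K was taken from Boltzmann-fitted unfolding inflection points, run in duplicate with a temperature ramp of 3 °C per minute up to 85 °C. Each recombinant protein (2 µM) was in HEPES 10 mM pH 7.5 and NaCl 500 mM, with SYPRO Orange dye at 1:1000.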

GSK3B = target: T2, GSK3B (Homo sapiens, UniProt P49841); assay: Liability panel screening by DSF: GSK3B; format: binding; details: DSF, 20 µM, n=2; read-out: Mean ΔTM GSK3B
T2 construct: made in house

MAPK1 = target: T3, MAPK1 (Homo sapiens, UniProt P28482); assay: Liability panel screening by DSF: MAPK1; format: binding; details: DSF, 20 µM, n=2; read-out: Mean ΔTM MAPK1
T3 construct: made in house
In short: as §1

FGFR3 = target: T4, FGFR3 (Homo sapiens, UniProt P22607); assay: Liability panel screening by DSF: FGFR3; format: binding; details: DSF, 20 µM, n=2; read-out: Mean ΔTM FGFR3
T4 construct: made in house
In short: as §1

BRD4 = target: T5, BRD4 (Homo sapiens, UniProt O60885); assay: Liability panel screening by DSF: BRD4; format: binding; details: DSF, 20 µM, n=2; read-out: Mean ΔTM BRD4
T5 construct: This panel comprised ten highly ligandable kinases and bromodomains; made in house
In short: as §1

TRIM24 = target: T6, TRIM24 (Homo sapiens, UniProt O15164); assay: Liability panel screening by DSF: TRIM24; format: binding; details: DSF, 20 µM, n=2; read-out: Mean ΔTM TRIM24
T6 construct: This panel comprised ten highly ligandable kinases and bromodomains; made in house
T6 sequence (O15164 899-1004 limits assumed): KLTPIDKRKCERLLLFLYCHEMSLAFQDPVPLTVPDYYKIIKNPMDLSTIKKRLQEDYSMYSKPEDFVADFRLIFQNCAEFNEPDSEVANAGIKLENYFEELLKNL
In short: as §1

[2] = test system: ATF6 activity in Hela ATF6 reporter cells; assay: Endoplasmic reticulum stress assay (ATF6 Renilla luciferase reporter, tunicamycin); format: cell-based; details: Homo sapiens, HeLa, 1 µM, single replicates n=1 to n=5; read-out: ER stress [rel. ATF6 activity]
In short: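 ER stress was induced by 100 ng/mL tunicamycin added 4 h after compound (0.1% DMSO) to HeLa ATF6 reporter cells. After 18 h more, Renilla luciferase signal was read and expressed relative to DMSO control, n=5 biological replicates.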

HEK293T cells [3] = assay: Cytotoxicity: growth-rate (change in confluence over 24 h); details: 1 µM, normalized to 0.1% DMSO control, single replicates (n=1...)
CDK2 = target: T7, CDK2 (Homo sapiens, UniProt P24941); assay: Liability panel screening by DSF: CDK2; format: binding; details: DSF, 20 µM, n=2; read-out: Mean ΔTM CDK2
T7 construct: made in house
In short: as §1

ABL1 = target: T8, ABL1 (Homo sapiens, UniProt P00519); assay: Liability panel screening by DSF: ABL1; format: binding; details: DSF, 20 µM, n=2; read-out: Mean ΔTM ABL1
T8 construct: made in house
In short: as §1

AURKA = target: T9, AURKA (Homo sapiens, UniProt O14965); assay: Liability panel screening by DSF: AURKA; format: binding; details: DSF, 20 µM, n=2; read-out: Mean ΔTM AURKA
T9 construct: made in house
T9 sequence (O14965 1-403): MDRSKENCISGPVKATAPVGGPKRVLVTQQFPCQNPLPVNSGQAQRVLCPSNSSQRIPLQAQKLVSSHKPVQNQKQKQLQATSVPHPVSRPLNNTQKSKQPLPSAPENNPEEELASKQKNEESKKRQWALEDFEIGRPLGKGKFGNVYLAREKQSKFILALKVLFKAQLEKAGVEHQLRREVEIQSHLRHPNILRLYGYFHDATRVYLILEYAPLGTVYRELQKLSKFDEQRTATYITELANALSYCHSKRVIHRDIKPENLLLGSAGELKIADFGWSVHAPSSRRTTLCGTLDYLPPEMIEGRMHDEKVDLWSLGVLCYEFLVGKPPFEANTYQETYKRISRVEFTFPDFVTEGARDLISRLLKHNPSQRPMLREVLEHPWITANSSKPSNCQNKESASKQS
In short: as §1

HEK293T cells [4] = assay: Cytotoxicity: apoptosis induction (caspase-3/7 DEVD fluorogenic DNA dye); details: HEK293T, 24 h

T8 sequence (P00519 whole entry, species assumed): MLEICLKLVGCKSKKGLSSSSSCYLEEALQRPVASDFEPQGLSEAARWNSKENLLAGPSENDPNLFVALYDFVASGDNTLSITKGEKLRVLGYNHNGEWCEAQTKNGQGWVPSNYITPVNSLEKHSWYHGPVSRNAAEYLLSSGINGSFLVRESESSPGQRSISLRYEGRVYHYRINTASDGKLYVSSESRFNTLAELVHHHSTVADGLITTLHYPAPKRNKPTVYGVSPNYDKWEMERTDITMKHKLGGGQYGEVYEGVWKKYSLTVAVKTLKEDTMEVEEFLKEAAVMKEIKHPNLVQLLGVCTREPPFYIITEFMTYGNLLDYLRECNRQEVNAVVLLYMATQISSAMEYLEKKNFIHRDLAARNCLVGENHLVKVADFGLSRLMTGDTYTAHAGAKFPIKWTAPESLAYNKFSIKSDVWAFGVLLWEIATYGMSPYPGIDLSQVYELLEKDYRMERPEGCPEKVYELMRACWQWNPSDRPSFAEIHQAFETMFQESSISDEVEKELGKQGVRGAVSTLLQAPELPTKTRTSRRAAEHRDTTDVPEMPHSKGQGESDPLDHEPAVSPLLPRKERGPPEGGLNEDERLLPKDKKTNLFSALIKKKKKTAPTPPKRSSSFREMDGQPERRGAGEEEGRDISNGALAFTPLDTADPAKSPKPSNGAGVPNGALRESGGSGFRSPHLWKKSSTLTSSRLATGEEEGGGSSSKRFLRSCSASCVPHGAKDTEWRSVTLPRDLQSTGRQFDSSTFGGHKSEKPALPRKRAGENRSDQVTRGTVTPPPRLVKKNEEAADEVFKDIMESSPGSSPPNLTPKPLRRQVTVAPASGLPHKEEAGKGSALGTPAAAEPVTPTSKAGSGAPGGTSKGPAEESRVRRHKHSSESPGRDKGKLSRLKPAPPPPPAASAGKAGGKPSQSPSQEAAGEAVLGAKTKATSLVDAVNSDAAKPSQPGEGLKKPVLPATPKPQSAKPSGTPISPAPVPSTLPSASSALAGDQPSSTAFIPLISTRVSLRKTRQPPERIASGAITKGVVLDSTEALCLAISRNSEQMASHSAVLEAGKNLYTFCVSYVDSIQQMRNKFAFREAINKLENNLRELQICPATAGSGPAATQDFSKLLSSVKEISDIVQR
T2 sequence (P49841 whole entry, species assumed): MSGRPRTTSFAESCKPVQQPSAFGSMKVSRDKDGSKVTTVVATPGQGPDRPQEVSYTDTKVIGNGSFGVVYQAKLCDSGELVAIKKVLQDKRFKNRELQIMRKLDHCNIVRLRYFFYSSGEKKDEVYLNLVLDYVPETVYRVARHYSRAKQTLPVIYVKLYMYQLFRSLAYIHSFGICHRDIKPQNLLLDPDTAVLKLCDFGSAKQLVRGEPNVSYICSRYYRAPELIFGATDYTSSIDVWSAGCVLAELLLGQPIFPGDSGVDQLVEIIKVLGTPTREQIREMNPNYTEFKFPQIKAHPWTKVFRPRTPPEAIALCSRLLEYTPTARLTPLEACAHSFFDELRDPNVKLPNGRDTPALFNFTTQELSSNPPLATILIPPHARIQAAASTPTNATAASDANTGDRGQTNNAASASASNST
T3 sequence (P28482 whole entry, species assumed): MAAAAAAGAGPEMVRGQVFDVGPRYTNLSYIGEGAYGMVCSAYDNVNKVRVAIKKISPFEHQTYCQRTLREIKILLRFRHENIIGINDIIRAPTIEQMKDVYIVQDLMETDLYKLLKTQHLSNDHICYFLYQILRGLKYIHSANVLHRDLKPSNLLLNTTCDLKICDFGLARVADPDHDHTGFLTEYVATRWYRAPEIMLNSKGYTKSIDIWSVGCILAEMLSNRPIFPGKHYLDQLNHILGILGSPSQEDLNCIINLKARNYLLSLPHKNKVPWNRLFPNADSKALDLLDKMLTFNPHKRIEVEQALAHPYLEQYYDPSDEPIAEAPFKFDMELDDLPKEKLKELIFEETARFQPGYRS
T4 sequence (P22607 23-806, species assumed): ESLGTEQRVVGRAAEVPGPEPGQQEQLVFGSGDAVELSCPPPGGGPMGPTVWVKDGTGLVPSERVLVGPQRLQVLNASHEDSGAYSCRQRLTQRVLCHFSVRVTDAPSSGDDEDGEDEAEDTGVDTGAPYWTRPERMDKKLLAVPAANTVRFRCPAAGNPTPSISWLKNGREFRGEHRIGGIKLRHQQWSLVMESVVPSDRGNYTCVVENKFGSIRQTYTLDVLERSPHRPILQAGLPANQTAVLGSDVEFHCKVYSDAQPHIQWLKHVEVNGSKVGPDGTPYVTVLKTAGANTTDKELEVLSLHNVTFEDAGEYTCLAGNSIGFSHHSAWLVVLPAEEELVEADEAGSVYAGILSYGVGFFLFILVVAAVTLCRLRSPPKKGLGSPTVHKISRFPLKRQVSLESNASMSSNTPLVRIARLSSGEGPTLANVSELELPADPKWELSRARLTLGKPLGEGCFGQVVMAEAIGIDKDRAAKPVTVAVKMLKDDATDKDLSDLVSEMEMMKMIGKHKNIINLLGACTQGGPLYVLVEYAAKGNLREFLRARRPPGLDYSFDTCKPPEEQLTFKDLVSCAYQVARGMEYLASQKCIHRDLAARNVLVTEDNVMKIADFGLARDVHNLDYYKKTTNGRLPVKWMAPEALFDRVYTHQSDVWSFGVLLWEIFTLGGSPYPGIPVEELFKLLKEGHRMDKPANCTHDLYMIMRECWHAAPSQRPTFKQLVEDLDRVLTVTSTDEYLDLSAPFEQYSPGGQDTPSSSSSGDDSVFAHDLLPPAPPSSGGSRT

SMILES: C[C@@H]1Cc2c([nH]c3ccccc23)[C@@H](c2c(F)cc(/C=C/C(=O)O)cc2F)N1CC(C)(C)F [AZD9496]
- Mean NFκB response ([1]; 1 µM, 1,5 h): 3183.32 GFP+-cells/confluence ∙ 1000
- Mean NFκB response ([1]; 1 µM, 4,5 h): 3743.71 GFP+-cells/confluence ∙ 1000
- Mean NFκB response ([1]; 1 µM, 7,5 h): 6968.05 GFP+-cells/confluence ∙ 1000
- Mean NFκB response ([1]; 1 µM, 10,5 h): 12962.04 GFP+-cells/confluence ∙ 1000
- Mean NFκB response ([1]; 1 µM, 13,5 h): 18218.90 GFP+-cells/confluence ∙ 1000
- Mean NFκB response ([1]; 1 µM, 16,6 h): 22070.92 GFP+-cells/confluence ∙ 1000
- Mean NFκB response ([1]; 1 µM, 19,5 h): 24828.05 GFP+-cells/confluence ∙ 1000
- Mean NFκB response ([1]; 1 µM, 22,5 h): 27011.69 GFP+-cells/confluence ∙ 1000
- Mean NFκB response ([1]; 1 µM, 3 h): 3319.11 GFP+-cells/confluence ∙ 1000
- Mean NFκB response ([1]; 1 µM, 6 h): 4897.81 GFP+-cells/confluence ∙ 1000
- Mean NFκB response ([1]; 1 µM, 9 h): 10141.67 GFP+-cells/confluence ∙ 1000
- Mean NFκB response ([1]; 1 µM, 12 h): 15818.86 GFP+-cells/confluence ∙ 1000
- Mean NFκB response ([1]; 1 µM, 15 h): 20214.01 GFP+-cells/confluence ∙ 1000
- Mean NFκB response ([1]; 1 µM, 18 h): 23720.26 GFP+-cells/confluence ∙ 1000
- Mean NFκB response ([1]; 1 µM, 21 h): 26076.44 GFP+-cells/confluence ∙ 1000
- Mean NFκB response ([1]; 1 µM, 24 h): 27738.19 GFP+-cells/confluence ∙ 1000
- NF-κB activity (inflammatory response to ionomycin/PMA) ([1]; HEK293 NF-κB reporter cells, compounds at recommended concentrations, imaged over 24 h, n = 3): reducing the inflammatory response
- ΔTm at 20 µM (BRPF1): -4.53 °C
- ΔTm at 20 µM (GSK3B): 0 °C
- ΔTm at 20 µM (MAPK1): 0.55 °C
- ΔTm at 20 µM (FGFR3): 0.58 °C
- ΔTm at 20 µM (BRD4): 0.36 °C
- ΔTm at 20 µM (TRIM24): -0.62 °C
- activity at 1 µM [2]: 101%
- Growth rate [GR] (HEK293T cells [3]): 1.04 and 0.96 and 0.95 and 1.23 and 0.78 and 0.74 (3×) and 1.43 and 4.43
- ΔTm at 20 µM (CDK2): -0.07 °C
- ΔTm at 20 µM (ABL1): -0.24 °C
- ΔTm at 20 µM (AURKA): -0.16 °C
- Apoptosis induction [AI] (HEK293T cells [4]; 1 µM, apoptotic cell count normalized to 0.1% DMSO, single replicates): 0.64 and 1.56 and 0.90 and 1.15 and 1.90 and 3.05
- apoptosis induction (HEK293T cells [4]; budesonide (3 µM), others at tested concentration): slight apoptosis induction
